The target of the experiment is T1, TRPM7 (transient receptor potential melastatin 7) (Mus musculus, UniProt Q923J1).
T1 construct: murine TRPM7 (GenBank AF376052) overexpressed in HEK293 (HEK-M7)
The experiment is described as follows: whole-cell patch clamp at +[…] mV; Fura-2 Mn2+ quench gave IC50 […]. It is filed as cell-based. Background: The patch-clamp technique gives a direct electrical read-out from membranes.

T1 sequence (Q923J1 whole entry): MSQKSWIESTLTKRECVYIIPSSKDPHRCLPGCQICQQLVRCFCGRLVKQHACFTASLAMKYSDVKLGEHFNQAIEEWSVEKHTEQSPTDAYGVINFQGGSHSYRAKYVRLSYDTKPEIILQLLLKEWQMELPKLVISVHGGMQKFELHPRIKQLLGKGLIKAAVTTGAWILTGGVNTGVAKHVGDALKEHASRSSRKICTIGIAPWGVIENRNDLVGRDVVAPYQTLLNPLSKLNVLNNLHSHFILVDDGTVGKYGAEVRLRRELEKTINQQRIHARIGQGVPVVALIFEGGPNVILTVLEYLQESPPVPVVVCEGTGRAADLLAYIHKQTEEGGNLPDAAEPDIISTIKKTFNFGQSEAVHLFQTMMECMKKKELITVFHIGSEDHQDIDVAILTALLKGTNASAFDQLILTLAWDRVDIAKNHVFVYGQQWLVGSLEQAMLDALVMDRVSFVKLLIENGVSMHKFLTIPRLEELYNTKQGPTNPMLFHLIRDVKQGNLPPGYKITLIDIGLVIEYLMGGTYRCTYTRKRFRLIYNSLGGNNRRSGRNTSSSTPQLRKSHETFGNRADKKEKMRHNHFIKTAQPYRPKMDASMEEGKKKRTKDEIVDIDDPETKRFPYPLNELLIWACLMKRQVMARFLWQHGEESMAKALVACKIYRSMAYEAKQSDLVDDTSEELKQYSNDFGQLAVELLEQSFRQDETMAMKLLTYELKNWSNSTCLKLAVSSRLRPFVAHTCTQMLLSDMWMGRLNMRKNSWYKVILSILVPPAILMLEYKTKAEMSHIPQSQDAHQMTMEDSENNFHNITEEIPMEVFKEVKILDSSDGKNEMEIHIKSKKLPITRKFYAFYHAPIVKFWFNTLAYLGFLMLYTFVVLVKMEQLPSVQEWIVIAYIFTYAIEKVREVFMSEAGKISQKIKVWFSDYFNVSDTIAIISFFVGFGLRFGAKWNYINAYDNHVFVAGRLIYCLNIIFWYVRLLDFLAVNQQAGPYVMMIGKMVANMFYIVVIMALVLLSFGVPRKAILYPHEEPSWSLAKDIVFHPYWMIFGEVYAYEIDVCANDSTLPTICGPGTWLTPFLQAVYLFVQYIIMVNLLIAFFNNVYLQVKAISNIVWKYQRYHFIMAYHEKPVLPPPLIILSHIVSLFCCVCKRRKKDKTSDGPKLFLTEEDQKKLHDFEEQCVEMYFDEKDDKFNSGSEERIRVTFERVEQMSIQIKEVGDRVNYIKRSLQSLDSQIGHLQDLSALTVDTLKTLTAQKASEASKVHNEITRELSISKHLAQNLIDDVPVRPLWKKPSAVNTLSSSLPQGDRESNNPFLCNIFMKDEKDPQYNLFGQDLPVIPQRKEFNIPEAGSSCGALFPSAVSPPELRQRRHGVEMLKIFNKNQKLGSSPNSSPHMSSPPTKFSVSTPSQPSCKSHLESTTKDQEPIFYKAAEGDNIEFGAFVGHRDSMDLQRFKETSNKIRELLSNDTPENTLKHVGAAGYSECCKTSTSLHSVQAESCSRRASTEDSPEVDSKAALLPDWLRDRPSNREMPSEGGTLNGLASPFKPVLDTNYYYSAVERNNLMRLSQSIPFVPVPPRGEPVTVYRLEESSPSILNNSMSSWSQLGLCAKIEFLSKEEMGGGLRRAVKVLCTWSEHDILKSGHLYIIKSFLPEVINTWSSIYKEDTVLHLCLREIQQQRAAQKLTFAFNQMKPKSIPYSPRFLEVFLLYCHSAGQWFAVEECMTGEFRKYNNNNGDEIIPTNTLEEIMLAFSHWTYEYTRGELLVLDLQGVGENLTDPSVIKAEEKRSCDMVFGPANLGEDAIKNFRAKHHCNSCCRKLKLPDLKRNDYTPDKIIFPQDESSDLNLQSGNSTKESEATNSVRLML

The term IC50 denotes the concentration that inhibits the measured activity by half. With `NCCOB(c1ccccc1)c1ccccc1` [2-APB, 2-aminoethyl diphenylborinate], the IC50 turned out to be 120 ± 16 µM.

Values taken from article PMC7016641, “The Role of Transient Receptor Potential Melastatin 7 (TRPM7) in Cell Viability: A Potential Target to Suppress Breast Cancer Cell Cycle” (Cancers, 2020).
